In patent publication US9109041B2, “Analog compounds of analgesic peptides derived from the venom of crotalus durissus terrificus snakes, their uses, compositions, methods of preparation and purification” (priority 2004, dated 2015):

Legend:
[1] = test system: prostaglandin E2-induced hyperalgesia; test: rat paw pressure test, prostaglandin E2-induced hyperalgesia; conditions: for 50% effective dose / 60% effective dose / 90% effective dose: reversal of PGE2-induced hyperalgesia, CurveExpert 1.3
[2] = test system: allodynia induced by constriction of the sciatic nerve; test: allodynia induced by chronic constriction of the sciatic nerve (von Frey hairs); assay type: in vivo, rat; conditions: 0.0016 μg/kg p.o.
Protocol: For the induction of neuropathic pain, surgery was performed in the sciatic nerve, in accordance with the method described by Bennett, G. J and Xie, Y. K. (Pain, 33:87-107, 1988). The animals were anesthetized with halothane. The sciatic nerve was exposed in the middle region of the thigh, moving away the femoral biceps muscle. Close to the trifurcation of the sciatic nerve, 7 mm of distance from the trifurcation, 4 loose ligations were performed (chromed catgut 4-0) around it, distant from each other in approximately 1 mm. The bindings were performed along the nerve, up to 4-5 mm from the initial point. The incision was sutured in layers, using silk suture thread number 4-0.
Allodynia was evaluated for quantitative testing, in response to tactile stimulus applied to the paws of the rat, according to the method described by Chaplan el al. (1994), modified. In this test, the rats were placed, individually, in plastic cages, with meshed wire at the bottom, to allow access to the paws of these animals. Briefly, a logarithmic series of 10 calibrated Semmes-Weinstein monofilaments (von Frey hairs, Aesthesiometer Semmer-Weinstein, Stoelting Co., E.U.A) was applied to the right hind paw to determine the stimulus intensity threshold stiffness required to elicit a paw withdrawal response. Log stiffness of the hairs is determined by log 10 (mg×10) having the following values (the value in grams is between parenthesis): 3.61 (0.407 g); 3.84 (0.692 g); 4.08 (1.202 g); 4.17 (1.479 g); 4.31 (2.041 g); 4.56 (3.630 g); 4.74 (5.495 g); 4.93 (8.511 g); 5.07 (11.749 g) and 5.18 (15.136 g). It is important to point out that the filaments with weight greater than 15.136 g were not employed in the studies of allodynia.
The filaments were applied, one by one, perpendicularly, under the plantar area of both hind paws and maintained for a period of 8 seconds. The filament capable of eliciting the withdrawal of the paw, two consecutive times, was considered as the force in grams necessary to elicit the response (100% of response). In the absence of a response to the greater stimulus (15.135 g), this filament was considered as cut value.
The behavioral responses were used to calculate the 50% paw withdrawal threshold (absolute threshold), by fitting a gaussian integral psychometric function, using a maximum-likelihood fitting method. This fitting method allows parametric analyses.
The period of the application of the test and the treatments were the same as those used for determination of hyperalgesia (Table 12).
The results were analyzed by comparing the means of the basal and initial measurements or, when determined, by comparing the means obtained in the different experimental groups.
For this purpose, the animals were treated with CTOP, a specific μ receptor antagonist (20 μg/paw), nor-BNI, a specific κ receptor antagonist (50 μg/paw) or with ICI 174,864, a specific δ receptor antagonist (10 μg/paw). The antagonists were injected, by intraplantar route. The peptide was administered in the dose of 5 μg/kg, orally, immediately before the injection of the opioid antagonists.
The results were analyzed comparing the mean values of the basal and initial measurements, or of the initial and final measurements or, when determined, by comparing the mean values obtained in the different experimental groups (Tables 15 and 16).

Xaa-Phe-Ser-Pro-Glu-Asn-Cys-Gln-Gly-Glu-Ser-Gln-Pro-Cys [SEQ ID NO: 2]
pain threshold, FM (g) ± S.E.M ([1]; 0.00000256 μg/paw i.pl., 3 h after PGE2 100 ng/paw i.pl.): 57 ± 5.34 g | pain threshold, IM (g) ± S.E.M. ([1]; 0.00000256 μg/paw i.pl., before PGE2): 72 ± 1.12 g | pain threshold, FM (g) ± S.E.M ([1]; 0.0000128 μg/kg i.v., 3 h after PGE2 100 ng/paw i.pl.): 54 ± 3.04 g | pain threshold, IM (g) ± S.E.M. ([1]; 0.0000128 μg/kg i.v., before PGE2): 70 ± 2.05 g | pain threshold, FM (g) ± S.E.M ([1]; 0.0000128 μg/paw i.pl., 3 h after PGE2 100 ng/paw i.pl.): 62 ± 3.22 g | pain threshold, IM (g) ± S.E.M. ([1]; 0.0000128 μg/paw i.pl., before PGE2): 71 ± 2.39 g | pain threshold, FM (g) ± S.E.M ([1]; 0.000064 μg/kg i.v., 3 h after PGE2 100 ng/paw i.pl.): 54 ± 2.39 g | pain threshold, IM (g) ± S.E.M. ([1]; 0.000064 μg/kg i.v., before PGE2): 68 ± 1.44 g | pain threshold, FM (g) ± S.E.M ([1]; 0.00032 μg/kg i.v., 3 h after PGE2 100 ng/paw i.pl.): 63 ± 5.16 g | pain threshold, IM (g) ± S.E.M. ([1]; 0.00032 μg/kg i.v., before PGE2): 72 ± 1.84 g | pain threshold, FM (g) ± S.E.M ([1]; 0.00032 μg/paw i.pl., 3 h after PGE2 100 ng/paw i.pl.): 60 ± 3.25 g | pain threshold, IM (g) ± S.E.M. ([1]; 0.00032 μg/paw i.pl., before PGE2): 67 ± 2.35 g | pain threshold, FM (g) ± S.E.M ([1]; 0.0016 μg/kg i.v., 3 h after PGE2 100 ng/paw i.pl.): 67 ± 2.35 g | pain threshold, IM (g) ± S.E.M. ([1]; 0.0016 μg/kg i.v., before PGE2): 74 ± 0.92 g | pain threshold, FM (g) ± S.E.M ([1]; 0.0016 μg/kg p.o., 3 h after PGE2 100 ng/paw i.pl.): 64 ± 1.00 g | pain threshold, IM (g) ± S.E.M. ([1]; 0.0016 μg/kg p.o., before PGE2): 78 ± 1.22 g | pain threshold, FM (g) ± S.E.M ([1]; 0.0016 μg/paw i.pl., 3 h after PGE2 100 ng/paw i.pl.): 67 ± 1.12 g | pain threshold, IM (g) ± S.E.M. ([1]; 0.0016 μg/paw i.pl., before PGE2): 72 ± 1.84 g | pain threshold, FM (g) ± S.E.M ([1]; 0.008 μg/kg i.v., 3 h after PGE2 100 ng/paw i.pl.): 73 ± 4.74 g | pain threshold, IM (g) ± S.E.M. ([1]; 0.008 μg/kg i.v., before PGE2): 69 ± 2.26 g | pain threshold, FM (g) ± S.E.M ([1]; 0.008 μg/kg p.o., 3 h after PGE2 100 ng/paw i.pl.): 71 ± 2.39 g | pain threshold, IM (g) ± S.E.M. ([1]; 0.008 μg/kg p.o., before PGE2): 79 ± 1.25 g | pain threshold, FM (g) ± S.E.M ([1]; 0.04 μg/kg p.o., 3 h after PGE2 100 ng/paw i.pl.): 75 ± 1.87 g | pain threshold, IM (g) ± S.E.M. ([1]; 0.04 μg/kg p.o., before PGE2): 77 ± 1.22 g | pain threshold, FM (g) ± S.E.M ([1]; 0.2 μg/kg p.o., 3 h after PGE2 100 ng/paw i.pl.): 84 ± 1.87 g | pain threshold, IM (g) ± S.E.M. ([1]; 0.2 μg/kg p.o., before PGE2): 77 ± 2.00 g | pain threshold, FM (g) ± S.E.M ([1]; 1 μg/kg p.o. + CTOP 20 μg/leg i.pl. with PGE2, 3 h after PGE2): 114 ± 1.87 g | pain threshold, IM (g) ± S.E.M. ([1]; 1 μg/kg p.o. + CTOP 20 μg/leg i.pl., before PGE2): 77 ± 1.22 g | pain threshold, FM (g) ± S.E.M ([1]; 1 μg/kg p.o. + ICI174,864 10 μg/paw i.pl. with PGE2, 3 h after PGE2): 114 ± 1.00 g | pain threshold, IM (g) ± S.E.M. ([1]; 1 μg/kg p.o. + ICI174,864 10 μg/paw i.pl., before PGE2): 78 ± 1.22 g | pain threshold, FM (g) ± S.E.M ([1]; 1 μg/kg p.o. + nor-Binalthorphimine 50 μg/leg i.pl. with PGE2, 3 h after PGE2): 56 ± 1.87 g | pain threshold, IM (g) ± S.E.M. ([1]; 1 μg/kg p.o. + nor-Binalthorphimine 50 μg/leg i.pl., before PGE2): 77 ± 1.22 g | pain threshold, IM (g) ± S.E.M. ([1]; 1 μg/kg p.o., 0 h, before administration (Table 6)): 79 ± 1.00 g | pain threshold, FM (g) ± S.E.M ([1]; 1.0 μg/kg p.o., 3 h after PGE2 100 ng/paw i.pl. (Table 2)): 108 ± 2.00 g | pain threshold, FM (g) ± S.E.M ([1]; 1 μg/kg p.o., 3 h after PGE2 100 ng/paw i.pl. (Table 7)): 111 ± 3.32 g | pain threshold, FM (g) ± S.E.M ([1]; 1 μg/kg p.o., 24 h after administration, PGE2 100 ng/paw 3 h before measurement): 126 ± 3.32 g | pain threshold, FM (g) ± S.E.M ([1]; 1 μg/kg p.o., 48 h after administration, PGE2 100 ng/paw 3 h before measurement): 121 ± 1.87 g | pain threshold, FM (g) ± S.E.M ([1]; 1 μg/kg p.o., 72 h after administration, PGE2 100 ng/paw 3 h before measurement): 111 ± 4.3 g | pain threshold, FM (g) ± S.E.M ([1]; 1 μg/kg p.o., 96 h after administration, PGE2 100 ng/paw 3 h before measurement): 117 ± 2.5 g | pain threshold, FM (g) ± S.E.M ([1]; 1 μg/kg p.o., 120 h after administration, PGE2 100 ng/paw 3 h before measurement): 130 ± 2.24 g | pain threshold, FM (g) ± S.E.M ([1]; 1 μg/kg p.o., 144 h after administration, PGE2 100 ng/paw 3 h before measurement): 59 ± 2.39 g | pain threshold, IM (g) ± S.E.M. ([1]; 1.0 μg/kg p.o., before PGE2 (Table 2)): 77 ± 2.00 g | pain threshold, IM (g) ± S.E.M. ([1]; 1 μg/kg p.o., before PGE2 (Table 7)): 77 ± 1.22 g | pain threshold, FM (g) ± S.E.M ([1]; 5 μg/kg p.o. + ICI174,864 i.pl. with PGE2, 3 h after PGE2): 145 ± 2.89 g | pain threshold, IM (g) ± S.E.M. ([1]; 5 μg/kg p.o. + ICI174,864 i.pl., before PGE2): 77 ± 1.05 g | pain threshold, FM (g) ± S.E.M ([1]; 5 μg/kg p.o. + nor-BNI i.pl. with PGE2, 3 h after PGE2): 58 ± 2.47 g | pain threshold, IM (g) ± S.E.M. ([1]; 5 μg/kg p.o. + nor-BNI i.pl., before PGE2): 77 ± 1.05 g | pain threshold, FM (g) ± S.E.M ([1]; 5.0 μg/kg p.o., 3 h after PGE2 100 ng/paw i.pl. (Table 2)): 130 ± 1.58 g | pain threshold, FM (g) ± S.E.M ([1]; 5 μg/kg p.o., 3 h after PGE2 100 ng/paw i.pl. (Table 8)): 147 ± 2.55 g | pain threshold, IM (g) ± S.E.M. ([1]; 5.0 μg/kg p.o., before PGE2 (Table 2)): 78 ± 2.00 g | pain threshold, IM (g) ± S.E.M. ([1]; 5 μg/kg p.o., before PGE2 (Table 8)): 77 ± 1.22 g | pain threshold, FM (g) ± S.E.M ([1]; 25.0 μg/kg p.o., 3 h after PGE2 100 ng/paw i.pl.): 133 ± 3.39 g | pain threshold, IM (g) ± S.E.M. ([1]; 25.0 μg/kg p.o., before PGE2): 79 ± 1.87 g | 50% effective dose ([1]; intraplantar route): 0.000002327 µg/kg | 60% effective dose ([1]; intraplantar route): 0.000004904 µg/kg | 90% effective dose ([1]; intraplantar route): 0.002876 µg/kg | 50% effective dose ([1]; intravenous route): 0.0000458 µg/kg | 60% effective dose ([1]; intravenous route): 0.0002144 µg/kg | 90% effective dose ([1]; intravenous route): 0.002701 µg/kg | duration of the antinociceptive effect ([1]; one single administration, 1 μg/kg p.o.): up to 120 hours | 50% effective dose ([1]; oral route): 0.004146 µg/kg | 60% effective dose ([1]; oral route): 0.006348 µg/kg | 90% effective dose ([1]; oral route): 0.02106 µg/kg | opioid receptors involved in the antinociceptive effect ([1]; peptide 1 μg/kg p.o., delta, kappa, mu antagonists i.pl.): kappa opioid receptors are involved | opioid receptors involved in the antinociceptive activity ([1]; peptide 5 μg/kg p.o., kappa and delta antagonists i.pl.): kappa opioid receptors are involved | analgesic activity ([1]; synthetic peptides compared with natural ENPAK-k, similar conditions): same analgesic activity as the natural ENPAK-k | paw withdrawal threshold (allodynia), BM ([2]; before surgery): 5.02 ± 0.03 log 10 (mg × 10) | paw withdrawal threshold (allodynia), FM 1 h ([2]; day 14, 1 h after peptide): 4.22 ± 0.00 log 10 (mg × 10) | paw withdrawal threshold (allodynia), FM 3 h ([2]; day 14, 3 h after peptide): 4.22 ± 0.00 log 10 (mg × 10) | paw withdrawal threshold (allodynia), FM 24 h ([2]; day 14, 24 h after peptide): 4.22 ± 0.00 log 10 (mg × 10) | paw withdrawal threshold (allodynia), FM 48 h ([2]; day 14, 48 h after peptide): 4.22 ± 0.00 log 10 (mg × 10) | paw withdrawal threshold (allodynia), FM 72 h ([2]; day 14, 72 h after peptide): 4.22 ± 0.00 log 10 (mg × 10)
